Experimental data taken from patent US7375135B2, “Fatty acid derivatives; preparation and uses thereof” (Genfit, priority 2001, dated 2008).

Assays:
[1] = test system: PPARα; test: PPARα activation in vitro in HepG2 cells (Gal4 DNA binding domain / PPARα ligand binding domain chimera); type: cell-based; conditions: dose-dependent, FIG. 11
Procedure: Plasmids pG5TkpGL3, pGal4-hPPARα, pGal4-hPPARγ and pGal4-φ have been described previously (Raspé et al., J. Lipid Res. 40, 2099-2110, 1999). The pGal4-mPPARα and pGal4-hPPARδ constructs were obtained by cloning PCR-amplified DNA fragments corresponding to the DEF domains of the mouse PPARα and human PPARδ nuclear receptors into the pGal4-φ vector.
HepG2 and RK13 cells were from ECACC (Porton Down, UK) and were grown in DMEM medium supplemented with 10% (VN) fetal calf serum, 100 U/ml penicillin (Gibco, Paisley, UK) and 2 mM L-glutamine (Gibco, Paisley, UK). The culture medium was replaced every two days. Cells were kept at 37° C. in a humidified 5% CO2/95% air atmosphere.
HepG2 and RK13 cells seeded in 24-well culture dishes at a rate of 10^5 cells/well for HepG2 cells and 5×10^4 cells/well for RK13 cells were transfected for 2 hours with the reporter plasmid pG5TkpGL3 (10 ng/well), the expression vectors pGal4-φ, pGal4-mPPARα, pGal4-hPPARα, pGal4-hPPARγ, pGal4-hPPARδ (10 ng/well) and the transfection efficiency control vector pRL-null (Promega Madison, Wis., USA) (20 ng/well) according to the protocol previously described (Raspé et al., J. Lipid Res. 40, 2099-2110, 1999) and incubated for 36 hours with the test compounds. […]

[2] = test system: ABCA1 gene expression; test: ABCA1 and LXRα gene expression in human macrophages; type: cell-based; conditions: compound solubilized according to example 6, dose-dependent, FIG. 12
Procedure: THP-1 monocytes (ATCC, Rockville, Md., USA) were placed in 6-well culture dishes in the presence of PMA (phorbol myristate acetate) and fetal calf serum and incubated at 37° C. for 48 hours to allow them to differentiate to macrophages.
To obtain primary macrophages, mononuclear cells were isolated from human blood as previously described (Chinetti et al. Nat. Medecine 7(1), 53-58, 2001), placed in 6-well culture dishes and grown for 10 days in the presence of human serum to enable adherence and differentiation of the primary monocytes to macrophages.
Treatment with the different compounds was carried out for 48 hours in medium without human or fetal calf serum but supplemented with 1% Nutridoma HU serum (Boehringer).
Total RNA was extracted from treated macrophages with the mini RNeasy kit (Qiagen, Hilden, Germany) according to the supplier's instructions, assayed by spectrometry and quantified by quantitative RT-PCR with the Light Cycler Fast DNA Master Green I kit (Hoffman-La Riche, Basel, Switzerland) on a Light Cycler System (Hoffman-La Riche, Basel, Switzerland). Primer pairs specific for the ABCA1 and LXRα genes were used as probes.

[3] = Plasma insulin and glucose balance in Zucker rats; type: in vivo, rat; conditions: 300 mg/kg/d
Text: (§1) Male C57BL/6 mice (Charles River, L'Arbresle, France) aged 6 weeks at the start of the experiments were randomly divided into groups of 6 animals such that body weight distribution was uniform. Mice were given a low-fat diet (UAR AO4), a high-fat diet (29% (m/m) coconut oil) or the same enriched diet supplemented with the test compounds. Obese male Zucker rats (fa/fa) or non obese rats (fa/+) aged 5 or 21 weeks (Charles River, L'Arbresle, France) were divided into groups of 8 animals selected such that the distribution of plasma cholesterol and triglyceride levels was uniform, and maintained on a standard diet. Animals were housed in a 12 hour light/dark cycle at a constant temperature of 20° C.±3° C. Animals had access to food and water ad libitum. Food intake and weight increase were recorded. The test compounds were suspended in carboxymethylcellulose and administered by gastric lavage at the indicated doses, once a day for 15 days. At the end of treatment, some animals underwent a glucose tolerance test as described hereinbelow. At the end of the experiment the other animals were weighed and sacrificed under anesthesia after a 5 hour fast. Blood was collected on EDTA. Plasma was prepared by centrifugation at 3000 rpm for 20 minutes. Liver samples were removed and stored frozen in liquid nitrogen for subsequent analysis.
Blood glucose was determined by a colorimetric enzymatic assay (Sigma Aldrich, St Louis, Mo., USA).
Insulinemia was assayed on serum or plasma collected on EDTA.

[4] = Plasma cholesterol and triglycerides in Zucker rats; type: in vivo, rat
Text: as §1
Plasma lipid concentrations (total cholesterol and triglycerides) were determined by a colorimetric assay (Bio-Mérieux, Marcy l'Etoile, France) according to the supplier's instructions.

[5] = Plasma lipids and their distribution in lipoparticles in Sprague-Dawley rats; type: in vivo, rat; conditions: 300 mg/kg/d
Procedure: (§2) Sprague-Dawley or Wistar rats weighing 200 to 230 g (Charles River, L'Arbresle, France) were housed in a 12-hour light/dark cycle at a constant temperature of 20±3° C. After a 1-week acclimatization period, rats were weighed and distributed into groups of 8 animals selected such that the distribution of plasma cholesterol and triglyceride levels was uniform. The test compounds were suspended in carboxymethylcellulose and administered by gastric lavage at the indicated doses, once a day for 15 days. Animals had access to food and water ad libitum. At the end of the experiments, animals were weighed and sacrificed under anesthesia after a 5-hour fast. Blood was collected on EDTA. Plasma was isolated by centrifugation at 3000 rpm for 20 minutes. Liver samples were removed and stored frozen in liquid nitrogen until further analysis.
(§3) Lipid concentrations in plasma (total cholesterol and free cholesterol, triglycerides and phospholipids) were determined by a colorimetric assay (Bio-Mérieux, Marcy I'Etoile, France) according to the supplier's instructions. Plasma concentrations of apolipoproteins AII, AI and CIII were determined as previously described (Raspé et al., J. Lipid Res. 40, 2099-2110, 1999, Asset G et al., Lipids, 34, 39-44, 1999).
To separate the lipoproteins according to size, 300 μl of plasma were loaded on a Sepharose 6HR 10/30 column (Pharmacia, Uppsala, Sweden) and eluted at a constant flow rate (0.2 ml/minute) in PBS (pH 7.2). Optical density of the eluent was recorded at 280 nm. 0.3 ml fractions were collected. Lipid concentrations in the different fractions were determined by a colorimetric assay (Bio-Mérieux, Marcy I'Etoile, France) according to the supplier's instructions.

[6] = test system: hepatic expression of ACO, CPT-I, CPT-II, Apo AI, Apo CIII genes; test: Hepatic gene expression (RT-PCR) in treated Sprague-Dawley rats; type: in vivo, rat; conditions: 300 mg/kg/d
Procedure: as §2
(§4) Total RNA was isolated from the liver fragments by extraction with a mixture of guanidine thiocyanate/phenol acid/chloroform as previously described (Raspé et al., J. Lipid Res. 40, 2099-2110, 1999). Messenger RNA was quantified by semi-quantitative or quantitative RT-PCR with the Light Cycler Fast Start DNA Master Sybr Green I kit (Hoffman-La Roche, Basel, Switzerland) on a Light Cycler System (Hoffman-La Roche, Basel, Switzerland). Primer pairs specific for the ACO, Apo CIII, Apo AI, CPT-I and CPT-II genes were used as probes. Primer pairs specific for the 36B4, β-actin and GAPDH genes were used as control probes (see table I).

[7] = Glucose tolerance test in Zucker rats; type: in vivo, rat; conditions: 300 mg/kg/d
Text: as §1
Insulinemia was assayed on serum or plasma collected on EDTA. […]

[8] = Plasma cholesterol and triglycerides in Wistar rats; type: in vivo, rat; conditions: 300 mg/kg/d, after 14 days of treatment
Procedure: as §2, with “The test compounds were suspended in carboxymethylcellulose and administered by gastric lavage at the indicated doses, once a day for 15 days.” left out
as §3

[9] = test system: hepatic expression of the ACO gene; test: Hepatic ACO gene expression in treated Wistar rats; type: in vivo, rat; conditions: 300 mg/kg/d, FIG. 9C
Procedure: as §2
as §4, with “Primer pairs specific for the 36B4, β-actin and GAPDH genes were used as control probes (see table I).” left out

CCCCCCCCCCCCCCSCC(=O)OCC(COC(=O)CSCCCCCCCCCCCCCC)OC(=O)CSCCCCCCCCCCCCCC [Example 4a, 1,2,3-tritetradecylthioacetylglycerol]
PPARα activation in vitro [1]: very strong activation of the PPARα nuclear receptor
ABCA1 gene expression [2]: very strong activation of ABCA1 gene expression
plasma glucose levels ([3]; FIG. 7): glucose levels were equivalent in the two groups
insulin sensitivity ([3]; concluded from insulin and glucose levels): increased insulin sensitivity
plasma insulin levels (gradual compensatory increase versus control group) ([3]; especially after 14 days, FIG. 7): said increase was slower
total plasma cholesterol (gradual increase versus control group) ([4]; 300 mg/kg/d, FIG. 6A): said increase was slower
plasma triglycerides (gradual increase versus control group) ([4]; 300 mg/kg/d, FIG. 6B): said increase was markedly slower
plasma triglyceride levels, dose-effect relation ([4]; doses of 0 to 600 mg/kg/d, FIG. 10): gradual dose-dependent decrease in triglyceride levels
cholesterol distribution in lipoparticles (size exclusion chromatography) ([5]; FIG. 2A): decrease in cholesterol in the different lipoparticle classes
total plasma cholesterol levels ([5]; FIG. 2B): reduction of total plasma cholesterol levels
triglyceride distribution in lipoparticles (size exclusion chromatography) ([5]; FIG. 3A): decrease in triglycerides in this lipoparticle class
plasma triglyceride levels ([5]; FIG. 3B): reduction of plasma triglyceride levels
phospholipid distribution in lipoparticles (size exclusion chromatography) ([5]; FIG. 4A): decrease in phospholipids in the different lipoparticle classes
total plasma phospholipid levels ([5]; FIG. 4B): reduction of total plasma phospholipid levels
hepatic expression of ACO ([6]; FIG. 5A): strong activation of hepatic expression of ACO
hepatic expression of CPT-I ([6]; FIG. 5A): smaller increase in the expression of the genes CPT-I and CPT-II
hepatic expression of CPT-II ([6]; FIG. 5A): smaller increase in the expression of the genes CPT-I and CPT-II
hepatic Apo AI expression ([6]; FIG. 5B): slight decrease in hepatic Apo AI expression
hepatic Apo CIII expression ([6]; FIG. 5B): more marked decrease in Apo CIII expression
plasma insulin levels during a glucose tolerance test ([7]; FIG. 8): used less insulin in response to the glucose injection
insulin sensitivity ([7]; concluded from glucose tolerance test): increase in insulin sensitivity

CCCCCCCCCCCCCCCC(=O)OCC(COC(=O)CCCCCCCCCCCCCCC)OC(=O)CSCCCCCCCCCCCCCC [Example 4g, 1,3-dipalmitoyl-2-tetradecylthioacetylglycerol]
plasma cholesterol ([8]; FIG. 9A): decrease in circulating cholesterol and triglyceride levels
plasma triglycerides ([8]; FIG. 9B): decrease in circulating cholesterol and triglyceride levels
hepatic expression of the ACO gene [9]: marked activation of hepatic expression of the ACO gene
